{
  "source": "paper PMC11274453",
  "about": "“Structural and Thermodynamic Insights into Dimerization Interfaces of Drosophila Glutathione Transferases” (Biomolecules, 2024)",
  "key": {"[1]": {"target": "T1, DmGSTE1 (Drosophila melanogaster, UniProt Q7KK90)", "T1 construct": "gene GstE1; recombinant, codon-optimized gene in pET28a (NdeI/SacI), E. coli; homodimer; residues Ser2-Asp223 described in the structure", "T1 sequence (Q7KK90 1-224)": "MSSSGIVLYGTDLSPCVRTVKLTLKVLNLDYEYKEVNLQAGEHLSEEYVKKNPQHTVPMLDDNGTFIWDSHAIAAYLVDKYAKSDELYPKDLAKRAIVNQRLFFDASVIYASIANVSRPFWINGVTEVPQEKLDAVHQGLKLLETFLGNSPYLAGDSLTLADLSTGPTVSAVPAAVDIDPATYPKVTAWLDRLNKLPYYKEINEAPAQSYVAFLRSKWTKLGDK", "test": "spectrophotometric CDNB conjugation, […] nm, Michaelis-Menten fit", "assay_type": "biochemical", "details": "2 mM GSH; 100 mM sodium phosphate pH 6.5; 25 °C; 50 nM enzyme"}, "[2]": {"target": "T1, DmGSTE1", "test": "X-ray crystal structure, […] Å", "assay_type": "binding", "details": "G site; mixture with reduced glutathione at equal occupancies; sulfoxide H-bonds Ser14"}, "[3]": {"target": "the molecule itself", "test": "crystal structure; sitting-drop vapour diffusion at 4 °C; 15 mg/mL DmGSTE1 in 20 mM Tris-HCl pH 7.4; 20% w/v PEG 8000, 100 mM MES pH 6.0, 200 mM Ca acetate; space group P212121, one dimer in the asymmetric unit; glutathione bound"}},
  "data": [
    {"molecule": "O=[N+]([O-])c1ccc(Cl)c([N+](=O)[O-])c1", "note": "[CDNB, 1-chloro-2,4-dinitrobenzene]", "values": [
      {"measurement": "Km", "setting": "[1]", "result": "15 ± 4", "unit": "µM"}
    ]},
    {"molecule": "N[C@@H](CCC(=O)N[C@@H](CSO)C(=O)NCC(=O)O)C(=O)O", "note": "[GS8]", "values": [
      {"measurement": "X-ray crystal structure, 1.80 Å", "setting": "[2]", "result": "occupied by a mixture of glutathione and glutathione sulfoxide refined with equal occupancies"}
    ]},
    {"molecule": "Drosophila melanogaster GSTE1 (enzyme, Glutathione S-transferase E1 (Epsilon class), Drosophila melanogaster; the crystal model is described as Ser2-Tyr88 (N-terminal thioredoxin domain) and Pro89-Asp223 (C-terminal domain); Cloned in pET28a between NdeI and SacI; Crystallised with glutathione / glutathione sulfoxide in the G site; also called DmGSTE1; source: E. coli, purified (GSTrap Fast Flow, eluted with 10 mM reduced glutathione, …)) MSSSGIVLYGTDLSPCVRTVKLTLKVLNLDYEYKEVNLQAGEHLSEEYVKKNPQHTVPMLDDNGTFIWDSHAIAAYLVDKYAKSDELYPKDLAKRAIVNQRLFFDASVIYASIANVSRPFWINGVTEVPQEKLDAVHQGLKLLETFLGNSPYLAGDSLTLADLSTGPTVSAVPAAVDIDPATYPKVTAWLDRLNKLPYYKEINEAPAQSYVAFLRSKWTKLGDK", "values": [
      {"measurement": "stoichiometry N", "setting": "[3]", "result": 2}
    ]}
  ]
}
